{"source": "patent US20170190671A1", "about": "“BIS(ARYL)CATECHOL DERIVATIVES AS HERBICIDES” (E I DU PONT DE NEMOURS AND COMPANY, priority 2014, published 2017)", "experiment_in_all_cases": "Test D postemergence", "type_in_all_cases": "in vivo", "settings_in_all_cases": "scale 0 to 100", "key": {"[1]": {"system": "lambsquarters (Chenopodium album)", "excerpt": "(§1) Seeds of plant species selected from bluegrass (annual bluegrass, Poa annua), blackgrass (Alopecurus myosuroides), canarygrass (Phalaris minor), chickweed (common chickweed, Stellaria media), cutleaf geranium (Geranium dissectum), galium (catchweed bedstraw, Galium aparine), downy bromegrass (Bromus tectorum), field poppy (Papaver rhoeas), field violet (Viola arvensis), green foxtail (Setaria viridis), deadnettle (henbit deadnettle, Lamium amplexicaule), Italian ryegrass (Lolium multiflorum), kochia (Kochia scoparia), lambsquarters (Chenopodium album), oilseed rape (Brassica napus), pigweed (Amaranthus retroflexus), chamomile (scentless chamomile, Matricaria inodora), Russian thistle (Salsola kali), speedwell (bird's-eye speedwell, Veronica persica), spring barley (Hordeum vulgare), spring wheat (Triticum aestivum), wild buckwheat (Polygonum convolvulus), wild mustard (Sinapis arvensis), wild oat (Avenafatua), wild radish (Raphanus raphanistrum), windgrass (Apera spica-venti), winter barley (Hordeum vulgare), and winter wheat (Triticum aestivum) were planted into a silt loam soil and treated preemergence with test chemicals formulated in a non-phytotoxic solvent mixture which included a surfactant.\n(§2) At the same time, these species were planted in pots containing Redi-Earth® planting medium (Scotts Company, 14111 Scottslawn Road, Marysville, Ohio 43041) comprising spaghnum peat moss, vermiculite, wetting agent and starter nutrients and treated with postemergence applications of the test chemicals formulated in the same manner. Plants ranged in height from 2 to 18 cm (1- to 4-leaf stage). Treated plants and controls were maintained in a controlled growth environment for 14 to 21 days after which time all species were compared to controls and visually evaluated. Plant response ratings, summarized in Table D, are based on a scale of 0 to 100 where 0 is no effect and 100 is complete control. A dash (-) response means no test result."}, "[2]": {"system": "spring wheat (Triticum aestivum)", "excerpt": "as §1, §2"}, "[3]": {"system": "wild radish (Raphanus raphanistrum)", "excerpt": "as §1, §2"}, "[4]": {"system": "windgrass (Apera spica-venti)", "excerpt": "as §1, §2"}, "[5]": {"system": "green foxtail (Setaria viridis)", "excerpt": "as §1, §2"}, "[6]": {"system": "spring barley (Hordeum vulgare)", "excerpt": "as §1, §2"}, "[7]": {"system": "canarygrass (Phalaris minor)", "excerpt": "as §1, §2"}, "[8]": {"system": "kochia (Kochia scoparia)", "excerpt": "as §1, §2"}, "[9]": {"system": "bluegrass (annual bluegrass, Poa annua)", "excerpt": "as §1, §2"}, "[10]": {"system": "wild mustard (Sinapis arvensis)", "excerpt": "as §1, §2"}, "[11]": {"system": "pigweed (Amaranthus retroflexus)", "excerpt": "as §1, §2"}, "[12]": {"system": "chamomile (scentless chamomile, Matricaria inodora)", "excerpt": "as §1, §2"}, "[13]": {"system": "Italian ryegrass (Lolium multiflorum)", "excerpt": "as §1, §2"}, "[14]": {"system": "winter barley (Hordeum vulgare)", "excerpt": "as §1, §2"}, "[15]": {"system": "deadnettle (henbit deadnettle, Lamium amplexicaule)", "excerpt": "as §1, §2"}, "[16]": {"system": "field poppy (Papaver rhoeas)", "excerpt": "as §1, §2"}, "[17]": {"system": "oilseed rape (Brassica napus)", "excerpt": "as §1, §2"}, "[18]": {"system": "wild buckwheat (Polygonum convolvulus)", "excerpt": "as §1, §2"}, "[19]": {"system": "blackgrass (Alopecurus myosuroides)", "excerpt": "as §1, §2"}}}
{"smiles": "N#Cc1cccc(Oc2ncc(Cl)cn2)c1Oc1ncc(Cl)cn1", "note": "[Compound 3, 2,3-bis[(5-chloro-2-pyrimidinyl)oxy]benzonitrile]", "values": [{"measurement": "Plant response rating, Lambsquarters", "setting": "[1]; 16 g ai/ha", "value": 70}, {"measurement": "Plant response rating, Lambsquarters", "setting": "[1]; 31 g ai/ha", "value": 80}, {"measurement": "Plant response rating, Lambsquarters", "setting": "[1]; 62 g ai/ha", "value": 100}, {"measurement": "Plant response rating, Lambsquarters", "setting": "[1]; 125 g ai/ha", "value": 100}, {"measurement": "Plant response rating, Wheat, Spring", "setting": "[2]; 16 g ai/ha", "value": 0}, {"measurement": "Plant response rating, Wheat, Spring", "setting": "[2]; 31 g ai/ha", "value": 0}, {"measurement": "Plant response rating, Wheat, Spring", "setting": "[2]; 62 g ai/ha", "value": 5}, {"measurement": "Plant response rating, Wheat, Spring", "setting": "[2]; 125 g ai/ha", "value": 15}, {"measurement": "Plant response rating, Radish, Wild", "setting": "[3]; 16 g ai/ha", "value": 50}, {"measurement": "Plant response rating, Radish, Wild", "setting": "[3]; 31 g ai/ha", "value": 60}, {"measurement": "Plant response rating, Radish, Wild", "setting": "[3]; 62 g ai/ha", "value": 75}, {"measurement": "Plant response rating, Radish, Wild", "setting": "[3]; 125 g ai/ha", "value": 85}, {"measurement": "Plant response rating, Windgrass", "setting": "[4]; 16 g ai/ha", "value": 10}, {"measurement": "Plant response rating, Windgrass", "setting": "[4]; 31 g ai/ha", "value": 15}, {"measurement": "Plant response rating, Windgrass", "setting": "[4]; 62 g ai/ha", "value": 25}, {"measurement": "Plant response rating, Windgrass", "setting": "[4]; 125 g ai/ha", "value": 30}, {"measurement": "Plant response rating, Foxtail, Green", "setting": "[5]; 16 g ai/ha", "value": 10}, {"measurement": "Plant response rating, Foxtail, Green", "setting": "[5]; 31 g ai/ha", "value": 15}, {"measurement": "Plant response rating, Foxtail, Green", "setting": "[5]; 62 g ai/ha", "value": 20}, {"measurement": "Plant response rating, Foxtail, Green", "setting": "[5]; 125 g ai/ha", "value": 40}, {"measurement": "Plant response rating, Barley, Spring", "setting": "[6]; 16 g ai/ha", "value": 5}, {"measurement": "Plant response rating, Barley, Spring", "setting": "[6]; 31 g ai/ha", "value": 10}, {"measurement": "Plant response rating, Barley, Spring", "setting": "[6]; 62 g ai/ha", "value": 15}, {"measurement": "Plant response rating, Barley, Spring", "setting": "[6]; 125 g ai/ha", "value": 20}, {"measurement": "Plant response rating, Canarygrass", "setting": "[7]; 16 g ai/ha", "value": 5}, {"measurement": "Plant response rating, Canarygrass", "setting": "[7]; 31 g ai/ha", "value": 10}, {"measurement": "Plant response rating, Canarygrass", "setting": "[7]; 62 g ai/ha", "value": 15}, {"measurement": "Plant response rating, Canarygrass", "setting": "[7]; 125 g ai/ha", "value": 20}, {"measurement": "Plant response rating, Kochia", "setting": "[8]; 16 g ai/ha", "value": 85}, {"measurement": "Plant response rating, Kochia", "setting": "[8]; 31 g ai/ha", "value": 100}, {"measurement": "Plant response rating, Kochia", "setting": "[8]; 62 g ai/ha", "value": 100}, {"measurement": "Plant response rating, Kochia", "setting": "[8]; 125 g ai/ha", "value": 100}, {"measurement": "Plant response rating, Bluegrass", "setting": "[9]; 16 g ai/ha", "value": 15}, {"measurement": "Plant response rating, Bluegrass", "setting": "[9]; 31 g ai/ha", "value": 20}, {"measurement": "Plant response rating, Bluegrass", "setting": "[9]; 62 g ai/ha", "value": 25}, {"measurement": "Plant response rating, Bluegrass", "setting": "[9]; 125 g ai/ha", "value": 30}, {"measurement": "Plant response rating, Mustard, Wild", "setting": "[10]; 16 g ai/ha", "value": 45}, {"measurement": "Plant response rating, Mustard, Wild", "setting": "[10]; 31 g ai/ha", "value": 60}, {"measurement": "Plant response rating, Mustard, Wild", "setting": "[10]; 62 g ai/ha", "value": 65}, {"measurement": "Plant response rating, Mustard, Wild", "setting": "[10]; 125 g ai/ha", "value": 85}, {"measurement": "Plant response rating, Pigweed", "setting": "[11]; 16 g ai/ha", "value": 100}, {"measurement": "Plant response rating, Pigweed", "setting": "[11]; 31 g ai/ha", "value": 100}, {"measurement": "Plant response rating, Pigweed", "setting": "[11]; 62 g ai/ha", "value": 100}, {"measurement": "Plant response rating, Pigweed", "setting": "[11]; 125 g ai/ha", "value": 100}, {"measurement": "Plant response rating, Chamomile", "setting": "[12]; 16 g ai/ha", "value": 0}, {"measurement": "Plant response rating, Chamomile", "setting": "[12]; 31 g ai/ha", "value": 0}, {"measurement": "Plant response rating, Chamomile", "setting": "[12]; 62 g ai/ha", "value": 20}, {"measurement": "Plant response rating, Chamomile", "setting": "[12]; 125 g ai/ha", "value": 35}, {"measurement": "Plant response rating, Ryegrass, Italian", "setting": "[13]; 16 g ai/ha", "value": 0}, {"measurement": "Plant response rating, Ryegrass, Italian", "setting": "[13]; 31 g ai/ha", "value": 10}, {"measurement": "Plant response rating, Ryegrass, Italian", "setting": "[13]; 62 g ai/ha", "value": 10}, {"measurement": "Plant response rating, Ryegrass, Italian", "setting": "[13]; 125 g ai/ha", "value": 15}, {"measurement": "Plant response rating, Barley, Winter", "setting": "[14]; 16 g ai/ha", "value": 0}, {"measurement": "Plant response rating, Barley, Winter", "setting": "[14]; 31 g ai/ha", "value": 5}, {"measurement": "Plant response rating, Barley, Winter", "setting": "[14]; 62 g ai/ha", "value": 10}, {"measurement": "Plant response rating, Barley, Winter", "setting": "[14]; 125 g ai/ha", "value": 15}, {"measurement": "Plant response rating, Deadnettle", "setting": "[15]; 16 g ai/ha", "value": 60}, {"measurement": "Plant response rating, Deadnettle", "setting": "[15]; 31 g ai/ha", "value": 70}, {"measurement": "Plant response rating, Deadnettle", "setting": "[15]; 62 g ai/ha", "value": 70}, {"measurement": "Plant response rating, Deadnettle", "setting": "[15]; 125 g ai/ha", "value": 80}, {"measurement": "Plant response rating, Field Poppy", "setting": "[16]; 16 g ai/ha", "value": 35}, {"measurement": "Plant response rating, Field Poppy", "setting": "[16]; 31 g ai/ha", "value": 40}, {"measurement": "Plant response rating, Field Poppy", "setting": "[16]; 62 g ai/ha", "value": 55}, {"measurement": "Plant response rating, Field Poppy", "setting": "[16]; 125 g ai/ha", "value": 70}, {"measurement": "Plant response rating, Oilseed Rape", "setting": "[17]; 16 g ai/ha", "value": 40}, {"measurement": "Plant response rating, Oilseed Rape", "setting": "[17]; 31 g ai/ha", "value": 55}, {"measurement": "Plant response rating, Oilseed Rape", "setting": "[17]; 62 g ai/ha", "value": 60}, {"measurement": "Plant response rating, Oilseed Rape", "setting": "[17]; 125 g ai/ha", "value": 90}, {"measurement": "Plant response rating, Buckwheat, Wild", "setting": "[18]; 16 g ai/ha", "value": 85}, {"measurement": "Plant response rating, Buckwheat, Wild", "setting": "[18]; 31 g ai/ha", "value": 90}, {"measurement": "Plant response rating, Buckwheat, Wild", "setting": "[18]; 62 g ai/ha", "value": 95}, {"measurement": "Plant response rating, Buckwheat, Wild", "setting": "[18]; 125 g ai/ha", "value": 100}, {"measurement": "Plant response rating, Blackgrass", "setting": "[19]; 16 g ai/ha", "value": 5}, {"measurement": "Plant response rating, Blackgrass", "setting": "[19]; 31 g ai/ha", "value": 10}, {"measurement": "Plant response rating, Blackgrass", "setting": "[19]; 62 g ai/ha", "value": 15}, {"measurement": "Plant response rating, Blackgrass", "setting": "[19]; 125 g ai/ha", "value": 20}]}
